Measured values published in publication PMC1968618, “Acetylsalicylic acid (ASA) protects the prostaglandin-cAMP-system of human hypernephroma cells against irradiation-induced alterations” (British Journal of Cancer, 1993).
“And” between values parts separate entries of the source, which are not always exact repeats. Equal entries are not always repeated. Where two headings read alike, the source gives them in different places.

Legend:
[1] = tested on: PG binding sites on human hypernephroma cells; experiment: Time course of specific 3H-PG binding (association, dissociation); conditions: 3H-iloprost, 3H-PGE1 each 84 nM, 3H-PGE2 45 nM; stable for at least 80 min
[2] = tested on: PGE1-binding sites (3H-PGE1-receptors) on human hypernephroma cells; experiment: Saturation binding of 3H-PGE1 to cultured hypernephroma cells (Scatchard analysis); conditions: for Bmax, 3H-PGE1 binding, Table II: individual cell lines; for Bmax (binding capacity), 3H-PGE1 binding / Kd: mean of cell lines; for Kd: read-out: Kd (dissociation constant), 3H-PGE1 binding
[3] = tested on: PGE2-binding sites (3H-PGE2-receptors) on human hypernephroma cells; experiment: Saturation binding of 3H-PGE2 to cultured hypernephroma cells (Scatchard analysis); conditions: for Bmax, 3H-PGE2 binding, Table III: individual cell lines; for Bmax (binding capacity), 3H-PGE2 binding / Kd: mean of cell lines; for Kd: read-out: Kd (dissociation constant), 3H-PGE2 binding
[4] = target: T1, PGI2-binding sites (3H-iloprost receptors) on human hypernephroma cells (Homo sapiens, UniProt P43119); experiment: Saturation binding of 3H-iloprost to cultured hypernephroma cells (Scatchard analysis); conditions: for Bmax (binding capacity), 3H-iloprost binding: mean of cell lines; for Bmax, 3H-iloprost binding, Table I: individual cell lines
T1 construct: endogenous in cells; host or cells: primary cultures of human renal cell carcinoma (hypernephroma) cells, one line per patient

[5] = ASA-treated group (group 2), ASA 0.5 mg 10-6 cells for 24 h
[6] = ASA-treated group irradiated (group 4)
[7] = ASA-treated group irradiated (group 4), listed as 3H-PGE1
[8] = control group (group 1), no ASA, no irradiation
[9] = control group (group 1), no ASA, no irradiation, listed as 3H-PGE1
[10] = control group irradiated (group 3), 60Co 1.0 Gy min-1 over 10 min, assay about 2 h after

T1 sequence (P43119 whole entry): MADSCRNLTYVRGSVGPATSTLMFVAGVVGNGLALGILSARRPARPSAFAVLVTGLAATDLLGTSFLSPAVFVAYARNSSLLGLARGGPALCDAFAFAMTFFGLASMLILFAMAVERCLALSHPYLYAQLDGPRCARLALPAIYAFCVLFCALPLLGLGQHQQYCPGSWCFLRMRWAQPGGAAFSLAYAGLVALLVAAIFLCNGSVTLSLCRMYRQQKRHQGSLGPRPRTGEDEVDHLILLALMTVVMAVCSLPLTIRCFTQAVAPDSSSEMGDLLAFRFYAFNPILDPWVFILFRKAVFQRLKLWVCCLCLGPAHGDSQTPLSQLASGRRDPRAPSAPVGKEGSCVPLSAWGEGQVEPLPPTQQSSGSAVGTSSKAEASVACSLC

CCCCC[C@H](O)/C=C/[C@H]1[C@H](O)CC(=O)[C@@H]1CCCCCCC(=O)O [PGE1]
time to reach binding equilibrium [1]: ≤ 20 min | Bmax, 3H-PGE1 binding, Table II ([2]; ASA (group 2), patients 1,3,4,5,6,7,8,9,10,11 in order, listed as 3H-PGE1): 811 fmol mg-1 protein and 923 fmol mg-1 protein and 1076 fmol mg-1 protein and 1019 fmol mg-1 protein and 1367 fmol mg-1 protein and 897 fmol mg-1 protein and 1773 fmol mg-1 protein and 736 fmol mg-1 protein and 1064 fmol mg-1 protein and 1171 fmol mg-1 protein | Bmax (binding capacity), 3H-PGE1 binding [2, 5]: 1084 +/- 303 fmol mg-1 protein | Bmax (binding capacity), 3H-PGE1 binding ([2]; ASA-treated group (group 2), ASA 0.5 mg 10-6 cells for 24 h, listed as 3H-PGE1): 1084 fmol mg-1 protein | Kd [2, 5]: 2.8 ± 1.3 nM | Bmax (binding capacity), 3H-PGE1 binding [2, 6]: 699 +/- 240 fmol mg-1 protein | Bmax (binding capacity), 3H-PGE1 binding [2, 7]: 699 fmol mg-1 protein | Kd [2, 7]: 3 nM | Bmax, 3H-PGE1 binding, Table II ([2]; control (group 1), patients 1,3,4,5,6,7,8,9,10,11 in order, listed as 3H-PGE1): 781 fmol mg-1 protein and 372 fmol mg-1 protein and 978 fmol mg-1 protein and 911 fmol mg-1 protein and 694 fmol mg-1 protein and 893 fmol mg-1 protein and 1041 fmol mg-1 protein and 643 fmol mg-1 protein and 555 fmol mg-1 protein and 685 fmol mg-1 protein | Bmax (binding capacity), 3H-PGE1 binding [2, 8]: 755 +/- 206 fmol mg-1 protein | Bmax (binding capacity), 3H-PGE1 binding [2, 9]: 755 fmol mg-1 protein | Kd [2, 9]: ~4 nM | Kd [2, 8]: 3.7 ± 2.7 nM | Bmax (binding capacity), 3H-PGE1 binding [2, 10]: 266 +/- 153 fmol mg-1 protein | Bmax (binding capacity), 3H-PGE1 binding ([2]; control group irradiated (group 3), 60Co 1.0 Gy min-1 over 10 min, assay about 2 h after, listed as 3H-PGE1): 266 fmol mg-1 protein | Kd [2, 10]: 5 ± 5 nM | Bmax, 3H-PGE1 binding, Table II ([2]; irradiation, ASA (group 4), patients 3,6,7,9,10,11 in order, listed as 3H-PGE1): 679 fmol mg-1 protein and 867 fmol mg-1 protein and 615 fmol mg-1 protein and 268 fmol mg-1 protein and 884 fmol mg-1 protein and 879 fmol mg-1 protein | Bmax, 3H-PGE1 binding, Table II ([2]; irradiation, control (group 3), patients 3,6,7,9,10,11 in order, listed as 3H-PGE1): 267 fmol mg-1 protein and 504 fmol mg-1 protein and 301 fmol mg-1 protein and 137 fmol mg-1 protein and 319 fmol mg-1 protein and 68 fmol mg-1 protein

CCCCC[C@H](O)/C=C/[C@H]1[C@H](O)CC(=O)[C@@H]1C/C=C\CCCC(=O)O [PGE2]
time to reach binding equilibrium [1]: ≤ 30 min | Bmax, 3H-PGE2 binding, Table III ([3]; ASA (group 2), patients 1,3,4,5,6,8,9,10,11 in order, listed as 3H-PGE2): 650 fmol mg-1 protein and 162 fmol mg-1 protein and 858 fmol mg-1 protein and 780 fmol mg-1 protein and 1104 fmol mg-1 protein and 986 fmol mg-1 protein and 666 fmol mg-1 protein and 324 fmol mg-1 protein and 441 fmol mg-1 protein | Bmax (binding capacity), 3H-PGE2 binding [3, 5]: 663 +/- 309 fmol mg-1 protein | Bmax (binding capacity), 3H-PGE2 binding ([3]; ASA-treated group (group 2), ASA 0.5 mg 10-6 cells for 24 h, listed as 3H-PGE2): 663 fmol mg-1 protein | Kd [3, 5]: 2.2 ± 1.5 nM | Bmax (binding capacity), 3H-PGE2 binding [3, 6]: 287 fmol mg-1 protein | Kd [3, 6]: 3.5 nM | Bmax, 3H-PGE2 binding, Table III ([3]; control (group 1), patients 1,3,4,5,6,8,9,10,11 in order, listed as 3H-PGE2): 563 fmol mg-1 protein and 143 fmol mg-1 protein and 478 fmol mg-1 protein and 650 fmol mg-1 protein and 930 fmol mg-1 protein and 438 fmol mg-1 protein and 534 fmol mg-1 protein and 313 fmol mg-1 protein and 398 fmol mg-1 protein | Bmax (binding capacity), 3H-PGE2 binding [3, 8]: 494 +/- 221 fmol mg-1 protein | Bmax (binding capacity), 3H-PGE2 binding ([3]; control group (group 1), no ASA, no irradiation, listed as 3H-PGE2): 494 fmol mg-1 protein | Kd [3, 8]: 4.2 ± 2.5 nM | Bmax (binding capacity), 3H-PGE2 binding [3, 10]: 148 +/- 66 fmol mg-1 protein | Bmax (binding capacity), 3H-PGE2 binding ([3]; control group irradiated (group 3), 60Co 1.0 Gy min-1 over 10 min, assay about 2 h after, listed as 3H-PGE2): 148 fmol mg-1 protein | Kd [3, 10]: 4.7 ± 3.6 nM | Bmax, 3H-PGE2 binding, Table III ([3]; irradiation, ASA (group 4), patients 3,6,8,9,10,11 in order, listed as 3H-PGE2): 181 fmol mg-1 protein and 336 fmol mg-1 protein and 338 fmol mg-1 protein and 466 fmol mg-1 protein and 232 fmol mg-1 protein and 170 fmol mg-1 protein | Bmax, 3H-PGE2 binding, Table III ([3]; irradiation, control (group 3), patients 3,6,8,9,10,11 in order, listed as 3H-PGE2): 63 fmol mg-1 protein and 209 fmol mg-1 protein and 218 fmol mg-1 protein and 112 fmol mg-1 protein and 96 fmol mg-1 protein and 189 fmol mg-1 protein

CCCCC[C@H](O)/C=C/[C@@H]1[C@H]2C/C(=C/CCCC(=O)O)O[C@H]2C[C@H]1O [PGI2]
Bmax (binding capacity), 3H-iloprost binding [4, 8]: 693 +/- 164 fmol mg-1 protein | Bmax (binding capacity), 3H-iloprost binding [4, 10]: 325 +/- 194 fmol mg-1 protein

CC#CCC(C)[C@H](O)/C=C/[C@@H]1[C@H]2C/C(=C/CCCC(=O)O)C[C@H]2C[C@H]1O (stereo partly shown) [iloprost]
time to reach binding equilibrium [1]: ≤ 20 min | Bmax, 3H-iloprost binding, Table I ([4]; ASA (group 2), patients 1,2,3,4,5,6,7,8,9,10,11 in order, listed as 3H-iloprost): 813 fmol mg-1 protein and 855 fmol mg-1 protein and 987 fmol mg-1 protein and 960 fmol mg-1 protein and 916 fmol mg-1 protein and 1047 fmol mg-1 protein and 2024 fmol mg-1 protein and 1301 fmol mg-1 protein and 442 fmol mg-1 protein and 1023 fmol mg-1 protein and 861 fmol mg-1 protein | Bmax (binding capacity), 3H-iloprost binding [4, 5]: 1021 fmol mg-1 protein | Bmax (binding capacity), 3H-iloprost binding [4, 6]: 766 +/- 452 fmol mg-1 protein | Bmax (binding capacity), 3H-iloprost binding ([4]; ASA-treated group irradiated (group 4), listed as 3H-iloprost): 766 fmol mg-1 protein | Bmax, 3H-iloprost binding, Table I ([4]; control (group 1), patients 1,2,3,4,5,6,7,8,9,10,11 in order, listed as 3H-iloprost): 741 fmol mg-1 protein and 635 fmol mg-1 protein and 876 fmol mg-1 protein and 732 fmol mg-1 protein and 808 fmol mg-1 protein and 806 fmol mg-1 protein and 649 fmol mg-1 protein and 407 fmol mg-1 protein and 382 fmol mg-1 protein and 829 fmol mg-1 protein and 756 fmol mg-1 protein | Bmax (binding capacity), 3H-iloprost binding [4, 8]: 693 fmol mg-1 protein | Bmax (binding capacity), 3H-iloprost binding [4, 10]: 325 fmol mg-1 protein | Bmax, 3H-iloprost binding, Table I ([4]; irradiation, ASA (group 4), patients 3,4,6,7,9,10,11 in order, listed as 3H-iloprost): 489 fmol mg-1 protein and 354 fmol mg-1 protein and 867 fmol mg-1 protein and 1551 fmol mg-1 protein and 364 fmol mg-1 protein and 1162 fmol mg-1 protein and 576 fmol mg-1 protein | Bmax, 3H-iloprost binding, Table I ([4]; irradiation, control (group 3), patients 3,4,6,7,9,10,11 in order, listed as 3H-iloprost): 332 fmol mg-1 protein and 287 fmol mg-1 protein and 432 fmol mg-1 protein and 699 fmol mg-1 protein and 204 fmol mg-1 protein and 203 fmol mg-1 protein and 118 fmol mg-1 protein
